Experimental data: patent US20230285347A1, “Preterm Labour with Prostaglandin E2 Receptor Agonists” (IMPERIAL COLLEGE INNOVATIONS LIMITED, priority 2020, published 2023)

What was measured:
[1] = target: T1, EP2 (Homo sapiens, UniProt P43116); test: cAMP signalling in myometrial cells from different labouring groups, EP2 agonist; type: cell-based; details: butaprost 10 μM, FIG. 8
T1 construct: primary human myocytes cultured from term pregnant, non-labouring, myometrium; endogenous in cells; host or cells: primary human myometrial cells (myocytes) cultured from pregnant myometrium
Method: L=non-labouring, L+E=early stage spontaneous labour, L+L=late stage spontaneous labour, L+SE=early stage induced labour, L+SL=late stage induced labour. Myometrial cells from different labouring groups were treated with IBMX (5 minutes, 0.5 mM) before 1 minute stimulation with IBMX with/without butaprost (10 μM) or isoproterenol (10 μM). cAMP concentrations were normalised to protein. Data shown as mean±SEM, L−n=4. All other groups n=5. Each treatment compared to L− using one-way ANOVA with Dunnett's multiple comparison post-hoc test: **p<0.01, ***p<0.001, ****p<0.0001.
Myometrial tissue was acquired at St. Mary's hospital, Queen Charlotte and Chelsea hospital and Charing Cross hospital, London. Tissue was obtained from women provided with informed written consent with the approval from the Riverside Research Ethics Committee (RREC 3357, 1997-5089, 19/LO/1657) and experiments were carried out under the committee's guidelines and recommendations. Tissues were obtained from term (38+0-40 weeks gestation) pregnant women undergoing elective caesarean from the upper margin of the incision made at the lower segment of the uterus, before or after the onset of labor. Tissues taken from women in early labour (<3 cm cervical dilation) or late labour (>3 cm cervical dilation) with/without induction with syntocinon, an oxytocin analogue. Tissue was only taken from uncomplicated, singleton pregnancies.
Tissue was stored at 4° C. in phosphate buffered saline until fine dissection with scalpels and dissociation at 37° C. for 1 hour in a sterile-filtered mix of Dulbecco's modified Eagle's medium (DMEM) (Sigma Aldrich)/Ham's F-12 Nutrient Mixture (Sigma Aldrich) and serum-free DMEM (Sigma Aldrich) (1:1 v/v) containing collagenase 1A (Sigma Aldrich)(1 mg/ml), collagenase X (Sigma Aldrich)(1 mg/ml) and bovine serum albumin (Sigma Aldrich) (2 mg/ml). Dissociation was ended using DMEM 10% fetal bovine serum (Sigma Aldrich) and cell suspension was obtained using a 40-μm cell strainer before centrifugation at 3000 rpm for 5 minutes. […]

[2] = target: T1, EP2; test: COX-2 protein by western blot in myometrial cells from different labouring groups; type: cell-based; details: butaprost 10 μM, 6 hours
Method: L=non-labouring, L+E=early stage spontaneous labour, L+L=late stage spontaneous labour, L+SE=early stage induced labour, L+SL=late stage induced labour. (A) COX-2 protein (70 kB) determined by western blot and normalised to GAPDH protein (38 kB) in different labouring groups following 6 hour butaprost (10 μM) stimulation. Data shown as mean±SEM, n=5. Groups compared using one-way ANOVA with Dunnett's multiple comparison post-hoc test: *p<0.05. (B) Representative western blot for FIG. 9A.
Myometrial cells taken from women in different labouring groups were treated for 6-hours with butaprost. Confluent myometrial cells were lysed in RIPA buffer containing 1% Triton x-100, 1% Sodium deoxycholate, 0.1% SDS, 150 mM NaCl, 10 mM Tris, 1 mM EDTA plus 1 mM sodium orthovanadate and one Pierce EDTA-Free protease inhibitor mini tablet. 20-40 μg of lysate as determined via Bradford assay plus Laemmli buffer (0.5M pH 6.8 Tris, 10% SDS, 1% Bromophenol blue, 2% B-ME, 20% Glycerol) were separated with 1×SDS running buffer at 140V on SDS-PAGE gels polymerized with TEMED and ammonium persulfate: separating gel (40% poly, 1M pH 8.8 Tris, 10% SDS), […] (40% poly, 1M Tris (pH 6.8), 10% SDS). Proteins were transferred onto nitrocellulose membranes before blocking in 5% Milk TBS-T for 30 minutes and incubated overnight at 4° C. with primary antibody and blocking buffer (1:1000). Membranes were then incubated in TBS-T with appropriate secondary antibody for 1-3 hours (1:2000) before signal detection using HRP substrate and chemiluminescent imager (ImageQuant LAS 4000).

T1 sequence (P43116 whole entry): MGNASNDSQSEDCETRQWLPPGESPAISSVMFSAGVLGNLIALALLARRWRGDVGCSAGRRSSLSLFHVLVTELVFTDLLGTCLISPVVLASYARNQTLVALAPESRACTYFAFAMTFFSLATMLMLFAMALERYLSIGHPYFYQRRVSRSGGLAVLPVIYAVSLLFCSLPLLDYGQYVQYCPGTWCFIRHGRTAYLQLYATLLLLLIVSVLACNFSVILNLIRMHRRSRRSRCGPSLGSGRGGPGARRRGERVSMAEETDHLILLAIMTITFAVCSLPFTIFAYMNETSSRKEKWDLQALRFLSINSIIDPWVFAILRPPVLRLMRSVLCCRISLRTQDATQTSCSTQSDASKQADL

- reduction of agonist-stimulated cAMP, non-labouring vs spontaneous early labour ([1]; spontaneous early labour samples): 2.5 fold
- reduction of agonist-stimulated cAMP, non-labouring vs spontaneous late labour ([1]; spontaneous late labour samples): 10 fold
SMILES: CCCC1([C@H](O)C/C=C/[C@H]2[C@H](O)CC(=O)[C@@H]2CCCCCCC(=O)OC)CCC1 [butaprost]
- agonist-induced cAMP signalling in labouring groups vs non-labouring ([1]; all labouring groups): significantly attenuated in all labouring groups
- agonist-induced COX-2 in early stage labouring groups ([2]; all early stage labouring groups): significant increase in all early stage labouring groups
- agonist-induced COX-2 increase in late stage labouring groups ([2]; either late stage labouring group): not apparent in either late stage labouring group
- agonist-induced increases in COX-2 across groups ([2]; non-labouring and labouring groups, normalised to GAPDH): maintained across non-labouring and labouring groups
